Read-outs that look alike come from different tables or passages of the source.
Tests used:
β-alanine aminopeptidase [1] = assay: APIZYM-type test strips with β-alanyl-β-naphthylamide; assay type: cell-based; settings: Shewanella putrefaciens; five strains
β-alanine aminopeptidase [2] = assay: as above; assay type: cell-based; settings: Ralstonia picketti; five strains
β-alanine aminopeptidase [3] = assay: as above; assay type: cell-based; settings: Pseudomonas luteola; five strains
β-alanine aminopeptidase [4] = assay: as above; assay type: cell-based; settings: Pseudomonas oryzihabitans; five strains
β-alanine aminopeptidase [5] = assay: as above; assay type: cell-based; settings: Alcaligenes faecalis/odorans; five strains
β-alanine aminopeptidase [6] = assay: as above; assay type: cell-based; settings: CDC IV C2; five strains
β-alanine aminopeptidase [7] = assay: as above; assay type: cell-based; settings: Chryseobacterium balustinum; 1 strain
β-alanine aminopeptidase [8] = assay: as above; assay type: cell-based; settings: Pasteurella gallinarum; 1 strain
β-alanine aminopeptidase [9] = assay: as above; assay type: cell-based; settings: Moraxella non liquefaciens; 13 strains
β-alanine aminopeptidase [10] = assay: as above; assay type: cell-based; settings: Moraxella bovis; 4 strains
β-alanine aminopeptidase [11] = settings: Klebsiella pneumoniae; 3 strains tested; read after 22 to 24 hours
β-alanine aminopeptidase [12] = settings: Pseudomonas fluorescens; 2 strains tested; read after 22 to 24 hours
β-alanine aminopeptidase [13] = settings: Pseudomonas stutzeri; 3 strains tested; read after 22 to 24 hours

β-alanyl-β-naphthylamide
β-alanine aminopeptidase activity, result (β-alanine aminopeptidase [1]): negative
β-alanine aminopeptidase activity, result (β-alanine aminopeptidase [2]): negative
β-alanine aminopeptidase activity, result (β-alanine aminopeptidase [3]): negative
β-alanine aminopeptidase activity, result (β-alanine aminopeptidase [4]): negative
β-alanine aminopeptidase activity, result (β-alanine aminopeptidase [5]): negative
β-alanine aminopeptidase activity, result (β-alanine aminopeptidase [6]): negative
β-alanine aminopeptidase activity, result (β-alanine aminopeptidase [7]): negative
β-alanine aminopeptidase activity, result (β-alanine aminopeptidase [8]): negative
β-alanine aminopeptidase activity, result (β-alanine aminopeptidase [9]): negative
β-alanine aminopeptidase activity, result (β-alanine aminopeptidase [10]): negative

NCCC(=O)c1c(N)cc(Cl)c(O)c1Cl
Number of negative results (β-alanine aminopeptidase [11]): 3
Number positive results (β-alanine aminopeptidase [11]): 0
Number of negative results (β-alanine aminopeptidase [12]): 1
Number positive results (β-alanine aminopeptidase [12]): 1
Number of negative results (β-alanine aminopeptidase [13]): 3
Number positive results (β-alanine aminopeptidase [13]): 0

Source: patent US6905841B2, “Enzymatic substrates for detecting Pseudomonas aeruginas” (Biomerieux S.A., priority 1999, dated 2005)
